For 61 compounds, IC50, inhibition and MIC results are on record in patent US12247004B2, “2-amino-N-(amino-oxo-aryl-lambda6-sulfanylidene)acetamide compounds and their therapeutic use” (Oxford Drug Design Limited, priority 2019, dated 2025).

Converted amounts (≈) assume the structure as drawn. Structures can show the parent of a compound that is named as a salt.

The first assay deals with Leucyl-tRNA synthetase (LeuRS) (Escherichia coli (strain K12), UniProt P07813). As to the kind of experiment: Leucyl-tRNA synthetase enzyme inhibition (AMP-Glo; single point % inhibition at 100 μM and IC50).
Leucyl-tRNA synthetase (LeuRS), sequence (P07813 whole entry, looked up): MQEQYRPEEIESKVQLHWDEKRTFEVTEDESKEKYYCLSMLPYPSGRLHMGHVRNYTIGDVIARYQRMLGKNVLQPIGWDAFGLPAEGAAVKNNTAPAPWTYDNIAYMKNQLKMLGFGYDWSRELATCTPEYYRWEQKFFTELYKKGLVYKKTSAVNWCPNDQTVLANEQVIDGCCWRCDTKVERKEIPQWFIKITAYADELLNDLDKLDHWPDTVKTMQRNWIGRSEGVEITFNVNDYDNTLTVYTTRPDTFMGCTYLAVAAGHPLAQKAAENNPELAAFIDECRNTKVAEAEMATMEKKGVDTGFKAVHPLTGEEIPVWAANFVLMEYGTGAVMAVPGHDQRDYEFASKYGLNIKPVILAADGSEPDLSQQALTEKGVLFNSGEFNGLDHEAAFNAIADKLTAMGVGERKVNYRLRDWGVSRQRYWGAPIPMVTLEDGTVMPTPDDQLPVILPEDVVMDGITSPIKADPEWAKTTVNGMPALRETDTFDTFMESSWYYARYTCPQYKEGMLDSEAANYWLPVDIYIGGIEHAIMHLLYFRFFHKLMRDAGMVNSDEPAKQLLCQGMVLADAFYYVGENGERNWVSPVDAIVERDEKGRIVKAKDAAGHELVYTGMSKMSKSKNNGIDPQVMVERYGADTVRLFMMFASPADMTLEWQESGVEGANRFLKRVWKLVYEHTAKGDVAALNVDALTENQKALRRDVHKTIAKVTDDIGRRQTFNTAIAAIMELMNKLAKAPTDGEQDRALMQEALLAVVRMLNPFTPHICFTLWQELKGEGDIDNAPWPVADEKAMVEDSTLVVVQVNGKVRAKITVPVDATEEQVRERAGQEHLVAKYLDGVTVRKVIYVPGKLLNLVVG
Conditions: not given
In kind it is biochemical. From the text: Study 1—Enzyme Inhibition
The aminoacylation reaction catalyzed by aminoacyl-tRNA synthetases (aaRS) takes place in two steps. In the first step, aaRS activates its cognate amino acid with ATP; and in the second step the activated amino acid is loaded to its corresponding tRNA. This reaction can be summarized as follows: aaRS+aa+ATP=aaRS-aa-AMP+PPi aaRS-aa-AMP+tRNA=aa-tRNA+AMP+aaRS
wherein: aaRS, aminoacyl-tRNA synthetase; aa, amino acid; aaRS-aa-AMP, enzyme-bound to aminoacyl-adenylate; AMP, adenosine monophosphate; aa-tRNA, aminoacyl-tRNA, PPi, inorganic pyrophosphate.
a. Single Point Percentage Inhibition
The activity of the pathogenic aaRSs was monitored by measuring AMP production using the commercial kit AMP-Glo (Promega, Madison, USA).
Ligand stock solutions were prepared in 100% DMSO at 10 mM concentration. An assay buffer consisting of 100 mM Tris HCl pH 7.6, 40 mM MgCl, 20 mM KCl and 150 mM NaCl was prepared in dH2O.
Using the same enzymatic assay in a 384-well plate format, ten point concentration response curves were generated for each compound using a top concentration of 10 μM. The known inhibitor LeuAMS was used as a positive control for the LeuRS assay. 100% DMSO was used as a negative control. The IC50 was calculated based on non-linear regression analysis.
As usually defined, the IC50 is the concentration needed to halve the response being measured. Turning to `CC(C)C[C@H](N)C(=O)N=S(N)(=O)c1nc(Cl)cs1` (mixture of isomers) [ANASIA-045], the IC50 was determined as 5.52 µM.

`CC(=O)c1sccc1[S@@](N)(=O)=NC(=O)[C@@H](N)CC(C)C` (single isomer, unassigned) [ANASIA-112-1] displayed an IC50 of 0.294 µM.

As to `CN[S@@](=O)(=NC(=O)[C@@H](N)CC(C)C)c1ccccc1` [ANASIA-010-1, (S)-2-amino-4-methyl-N—((S)-(methylamino)(oxo)(phenyl)-λ6-sulfanylidene)pentanamide], inhibition was half-maximal at 9.15 µM (IC50).

`N[C@@H](CC1CC1)C(=O)N=[S@](N)(=O)c1ccccc1` [ANASIA-050-1]: the IC50 turned out to be 4.33 µM.

`CC(C)C[C@H](N)C(=O)N=[S@](N)(=O)c1cc(-c2ccccc2)cs1` [ANASIA-067-1]: the IC50 is 1.92 µM.

On to `CC(C)C[C@H](N)C(=O)N=S(N)(=O)c1ccn(C)n1` (stereo partly drawn) [ANASIA-073], for which 0.238 µM corresponded to half-maximal inhibition (IC50).

Compound `Cc1ccccc1[S@@](N)(=O)=NC(=O)[C@@H](N)CC(C)C` [ANASIA-086-1] came in with an IC50 of 3.33 µM.

Compound `CC(C)C[C@H](N)C(=O)N=[S@@](N)(=O)c1cccc(C(F)(F)F)c1` [ANASIA-089-2] came in with an IC50 of 2.39 µM.

With `CC(C)C[C@H](N)C(=O)N=[S@](N)(=O)c1sccc1C(C)C` [ANASIA-110-1], the IC50 stood at 0.425 µM.

In turn, `CC(C)C[C@H](N)C(=O)N=[S@](N)(=O)c1ccc(C(C)C)s1` [ANASIA-111-1] registered an IC50 of 0.779 µM.

Turning to `CC(C)C[C@H](N)C(=O)N=[S@](N)(=O)c1cccc(Oc2ccccc2)c1` [ANASIA-114-1], the IC50 was 0.0618 µM.

For `CC(C)C[C@H](N)C(=O)N=[S@](N)(=O)c1nc(C(F)F)cs1` [ANASIA-127-1], the IC50 worked out at 6.89 µM.

In turn, `CC(C)C[C@H](N)C(=O)N=[S@@](N)(=O)c1nc(C(F)F)cs1` [ANASIA-127-2] displayed an IC50 of 0.192 µM.

`Cc1nc([S@@](N)(=O)=NC(=O)[C@@H](N)CC(C)C)sc1C` [ANASIA-128-1]: the IC50 was determined as 2.61 µM.

On to `CC(C)C[C@H](N)C(=O)N=[S@](N)(=O)c1cscc1-c1ccccc1` [ANASIA-130-1], for which inhibition was half-maximal at 0.324 µM (IC50).

Consider `CC(C)C[C@H](N)C(=O)N=[S@](N)(=O)c1nsc2ccccc12` [ANASIA-132-1], for which the IC50 is 4.14 µM.

On to `CCc1csc([S@](N)(=O)=NC(=O)[C@@H](N)CC(C)C)c1` [ANASIA-133-2, (S)-2-amino-N—((R)-amino(4-ethylthiophen-2-yl)(oxo)-λ6-sulfanylidene)-4-methylpentanamide], for which the IC50 amounted to 6.37 µM.

As for `CC(C)C[C@H](N)C(=O)N=[S@](N)(=O)c1cc(Cl)sc1Cl` [ANASIA-134-1], the half-inhibitory concentration (IC50) is 5.15 µM.

The compound `CC(C)C[C@H](N)C(=O)N=[S@](N)(=O)c1csc(C#N)c1` [ANASIA-135-1] came in with an IC50 of 5.07 µM.

Compound `Cc1ncc([S@@](N)(=O)=NC(=O)[C@@H](N)CC(C)C)s1` [ANASIA-137-1] registered an IC50 of 2.67 µM.

Still in this assay, the particulars now being: E. coli LeuRS; read-out: Enzyme Inhibition - IC50, E. coli LeuRS.
In the case of `CC(C)C[C@H](N)C(=O)N=[S@@](N)(=O)c1cccc(Br)c1` [ANASIA-044-2], the IC50 worked out at 2.16 µM.

Turning to `CC(C)C[C@H](N)C(=O)N=S(N)(=O)c1ccc2c(c1)CCO2` (stereo partly drawn) [ANASIA-048], the half-inhibitory concentration (IC50) was 6.53 µM.

`CC(C)C[C@H](N)C(=O)N=[S@@](N)(=O)c1cccc(C(C)(C)C)c1` [ANASIA-049-2]: the IC50 is 2.63 µM.

Regarding `CC(C)C[C@H](N)C(=O)N=[S@@](N)(=O)c1cc(F)cs1` [ANASIA-062-2], the half-maximal inhibitory concentration (IC50) amounted to 0.715 µM.

With `CC(C)C[C@H](N)C(=O)N=S(N)(=O)c1cc(C#N)ccc1F` (stereo partly drawn) [ANASIA-065], the IC50 amounted to 0.67 µM.

As for `CC(C)C[C@H](N)C(=O)N=[S@@](N)(=O)c1ccccn1` [ANASIA-075-2], the IC50 was 2.54 µM.

`CC(C)C[C@H](N)C(=O)N=S(N)(=O)c1sc(Cl)nc1Cl` (stereo partly drawn) [ANASIA-076]: the IC50 came out at 2.26 µM.

Turning to `CC(C)C[C@H](N)C(=O)N=[S@@](N)(=O)c1scc(Cl)c1Cl` [ANASIA-081-2], the IC50 is 0.488 µM.

Regarding `CC(C)C[C@H](N)C(=O)N=S(N)(=O)c1cc2sccc2s1` (stereo partly drawn) [ANASIA-082], the IC50 turned out to be 0.449 µM.

Regarding `CC(C)C[C@H](N)C(=O)N=[S@@](N)(=O)c1csc2ccccc12` [ANASIA-083-2], the IC50 was found to be 2.3 µM.

`C=CCc1cccc(S(N)(=O)=NC(=O)[C@@H](N)CC(C)C)c1` (stereo partly drawn) [ANASIA-085, (2S)—N-((3-allylphenyl)(amino)(oxo)-λ6-sulfanylidene)-2-amino-4-methylpentanamide hydrochloride]: the IC50 amounted to 0.594 µM.

Turning to `CC(C)C[C@H](N)C(=O)N=[S@](N)(=O)c1ccccc1F` [ANASIA-087-2], the IC50 is 4.92 µM.

For `CC(C)C[C@H](N)C(=O)N=[S@@](N)(=O)c1cccc(OC(F)F)c1` [ANASIA-088-2], the IC50 stood at 1.56 µM.

Regarding `CC(C)C[C@H](N)C(=O)N=S(N)(=O)c1cccc(OC(F)(F)F)c1` (stereo partly drawn) [ANASIA-090], the IC50 turned out to be 0.199 µM.

On to `Cc1sccc1[S@](N)(=O)=NC(=O)[C@@H](N)CC(C)C` [ANASIA-091-2], for which the IC50 was determined as 8.15 µM.

For the compound `CC(C)C[C@H](N)C(=O)N=[S@@](N)(=O)c1ccsc1Cl` [ANASIA-092-2], the IC50 was 1.97 µM.

As for `CC(C)C[C@H](N)C(=O)N=S(N)(=O)c1ccsc1C(N)=O` (stereo partly drawn) [ANASIA-093, 3-(N′-(L-leucyl)sulfamidimidoyl)thiophene-2-carboxamide hydrochloride], the IC50 came out at 1.33 µM.

As to `Cc1csc([S@](N)(=O)=NC(=O)[C@@H](N)CC(C)C)c1` [ANASIA-095-2], the IC50 is 1.89 µM.

On to `CC(C)C[C@H](N)C(=O)N=S(N)(=O)c1cscc1C#N` (stereo partly drawn) [ANASIA-096], for which the IC50 is 0.7 µM.

Regarding `CC(C)C[C@H](N)C(=O)N=S(N)(=O)c1cscc1C(N)=O` (stereo partly drawn) [ANASIA-097, 4-(N′-(L-leucyl)sulfamidimidoyl)thiophene-3-carboxamide 2,2,2-trifluoroacetate], the IC50 is 2.16 µM.

For the compound `Cc1cc([S@](N)(=O)=NC(=O)[C@@H](N)CC(C)C)cs1` [ANASIA-098-2], the IC50 was determined as 5.14 µM.

`CC(C)C[C@H](N)C(=O)N=[S@@](N)(=O)c1csc(Cl)c1` [ANASIA-099-2]: the IC50 was 0.511 µM.

Regarding `CC(C)C[C@H](N)C(=O)N=[S@@](N)(=O)c1csc2ccsc12` [ANASIA-100-2], the IC50 was 0.945 µM.

Take `Cc1csc([S@](N)(=O)=NC(=O)[C@@H](N)CC(C)C)c1C` [ANASIA-104-2]: the IC50 was 3.25 µM.

`C=Cc1ccsc1S(N)(=O)=NC(=O)[C@@H](N)CC(C)C` (stereo partly drawn) [ANASIA-106, (2S)-2-amino-N-(amino(oxo)(3-vinylthiophen-2-yl)-λ6-sulfanylidene)-4-methylpentanamide hydrochloride]: the IC50 was 0.897 µM.

Take `CC(C)C[C@H](N)C(=O)N=[S@@](N)(=O)c1scc(Br)c1Br` [ANASIA-107-2]: the IC50 was 1.29 µM.

With `COc1ccsc1[S@](N)(=O)=NC(=O)[C@@H](N)CC(C)C` [ANASIA-108-2], the IC50 was 4.31 µM.

As for `CC(C)C[C@H](N)C(=O)N=[S@@](N)(=O)c1sccc1C(C)C` [ANASIA-110-2], the IC50 is 6.24 µM.

Consider `CC(C)C[C@H](N)C(=O)N=[S@@](N)(=O)c1cccc(Oc2ccccc2)c1` [ANASIA-114-2], for which the IC50 worked out at 0.982 µM.

For the compound `CCc1ccsc1[S@](N)(=O)=NC(=O)[C@@H](N)CC(C)C` [ANASIA-119-2], the IC50 turned out to be 4.65 µM.

On to `CC(C)C[C@H](N)C(=O)N=[S@@](N)(=O)c1sc(Cl)cc1Cl` [ANASIA-120-2], for which the IC50 is 7.6 µM.

For `CC(C)C[C@H](N)C(=O)N=[S@@](N)(=O)c1cc(Cl)c(Cl)s1` [ANASIA-121-2], the IC50 turned out to be 1.1 µM.

With `Cc1c([S@](N)(=O)=NC(=O)[C@@H](N)CC(C)C)csc1Cl` [ANASIA-122-2], the IC50 came to 1.93 µM.

For the compound `CC(C)C[C@H](N)C(=O)N=[S@@](N)(=O)c1cc(Cl)cs1` [ANASIA-124-2], the IC50 stood at 4.8 µM.

As for `CC(C)C[C@H](N)C(=O)N=[S@@](N)(=O)c1csc(Cl)c1Cl` [ANASIA-125-2], the IC50 was determined as 1.93 µM.

`CC(C)C[C@H](N)C(=O)N=[S@@](N)(=O)c1ccsc1C(F)F` [ANASIA-126-2]: the IC50 is 1.72 µM.

As to `Cc1nc([S@](N)(=O)=NC(=O)[C@@H](N)CC(C)C)sc1C` [ANASIA-128-2], the IC50 was 3.44 µM.

With `CC(C)C[C@H](N)C(=O)N=[S@@](N)(=O)c1cscc1-c1ccccc1` [ANASIA-130-2], the IC50 turned out to be 3.7 µM.

As to `CC(C)C[C@H](N)C(=O)N=[S@@](N)(=O)c1cc(C#N)cs1` [ANASIA-136-2], the IC50 amounted to 1.41 µM.

Turning to `Cc1ncc([S@](N)(=O)=NC(=O)[C@@H](N)CC(C)C)s1` [ANASIA-137-2], the IC50 came to 8.89 µM.

Still in this assay, the particulars now being: read-out: Enzyme inhibition, E. coli LeuRS, % at 10 μM.
Usually inhibition stands for the percentage by which the read-out fell short of the control. As to `CC(C)C[C@H](N)C(=O)N=S(N)(=O)c1ccncc1` (stereo partly drawn) [ANASIA-059-1, (2S)-2-amino-N-(amino(oxo)(pyridin-4-yl)-λ^6-sulfanylidene)-4-methylpentanamide], the inhibition at 10 µM is 46%.

In the next assay the test system is bacteria (ATCC reference strains). As to the kind of experiment: Antibacterial activity, MIC by broth micro-dilution (CLSI). The settings on record: Escherichia coli, ATCC25922, read-out: Antibacterial Activity (MIC), A = E. coli ATCC 25922. A general note: Dilution methods test growth across graded concentrations, often in twofold steps.
For orientation: MIC means the lowest concentration found to suppress growth. With `CC(=O)c1sccc1[S@@](N)(=O)=NC(=O)[C@@H](N)CC(C)C` (single isomer, unassigned) [ANASIA-112-1], the MIC came to 32 µg/mL (≈ 101 µM).

Still in this assay, the particulars now being: Escherichia coli, BAA2469, read-out: Antibacterial Activity (MIC), G = E. coli BAA-2469.
As for `CC(=O)c1sccc1[S@@](N)(=O)=NC(=O)[C@@H](N)CC(C)C` (single isomer, unassigned) [ANASIA-112-1], the MIC stood at 64 µg/mL (≈ 202 µM).
